Values quoted from earlier work, collected in patent US5908934A, “Process for the preparation of chiral ketone intermediates useful for the preparation of flavopiridol and analogs” (Bristol-Myers Squibb Company, priority 1997, dated 1999).

System: apoptosis
Conditions: combination with known cytotoxic agents; J. Cell Sci., 108, 2897 (1995)

## Cn1cnc2c(NCc3ccccc3)nc(NCCO)nc21 [olomucine]
  synergy with known cytotoxic agents in inducing apoptosis: act synergistically with known cytotoxic agents in inducing apoptosis
